“And” between values parts separate entries of the source, which are not always exact repeats. Equal values may be shown once.

This series concerns de novo pyrimidine biosynthesis in brain tissue. The experiment in a line: LC-MS metabolome profiling of brain tissues of treated mice. Type of series: in vivo. Conditions: individual samples, listed as BAY. How it is done: In parallel to these experiments, subcutaneous flank xenografts were engrafted into two cohorts of mice, which were treated with the vehicle or R2. […] To investigate the pharmacokinetics of BAY in vivo, its concentration in plasma and brain tissues of healthy mice was directly quantified using an LC-MS approach. BAY was detected in both brains and plasma of mice undergoing treatment, however the plasma concentrations exceeded those of the brain by approximately 10-fold (FIG. 5H-I). To determine whether treatment with BAY affects de novo pyrimidine biosynthesis in vivo, changes in pyrimidine metabolism were measured in the brain in comparison to tumor tissues from the flank (FIG. 5J-K). Although BAY treatment impacted de novo pyrimidine metabolism in vivo in both brain and tumor tissues, with a similar pattern observed in vitro (FIG. 4A), the effect size was stronger in peripheral tumor tissue in comparison to brain tissue. Such findings further reflect the limited capacity for BAY to accumulate within the brain.
For metabolome profiling of tissues, ˜5 mg tissue were homogenized in 225 μL of −20° C. cold, methanol using a Bullet Blender Tissue Homogenizer (NextAdvance, Inc.) Bullet for 3 min. The homogenate was vortexed for 20 s and 750 μL of −20° C. cold methyl tertiary-butyl ether (MTBE) was added, and the mixture was vortexed for 10 s and shaken at 4° C. for 5 min. Next, 188 μL room temperature water was added and vortexed for 20 s to induce phase separation. After centrifugation for 5 min at 14,000×g, the bottom polar phase was collected and dried down. Metabolite extracts were reconstituted in LC-MS grade water/acetonitrile (50:50; v:v), vortexed for 1 min, sonicated for 15 min, and centrifuged at 16,000×g and 4° C. for 15 min to remove insoluble debris.
The LC-MS metabolomics and lipidomics analyses of the 3 NSC and 3 MB cell lines and tissues were performed on a UPLC-MS system consisting of an Orbitrap IQ-X Tribrid coupled to a Horizon Vanquish UPLC system (Thermo Fisher Scientific). The lipidomics analysis was conducted in positive-ion mode with a spray voltage of 3.5 kV while the metabolomics analysis was conducted in negative-ion mode with a spray voltage of −2.5 kV. The following source conditions were identical in both analyses and were set as follows: Sheath gas flow rate, 50 arbitrary units; Aux. gas flow rate, 10 arbitrary units; Sweep gas flow rate, 1 arbitrary unit; Ion transfer tube temp., 300° C.; Vaporizer temp., 350° C. The following acquisition parameters were used for MS1 analysis in both methods: resolution, 120,000, AGC target, 4e5. The maximum IT was set at […] for the lipidomics analysis and 200 ms for the metabolomics analysis. Data-dependent MS/MS parameters for the lipidomics analyses: resolution, 30,000; AGC target, 7.5e4; maximum IT, Dynamic (54 ms); time between Master Scans, 0.6 s; isolation window, 1.0 m/z; NCE/stepped nce, 20, 30, 40; intensity threshold, 5e4; exclude isotopes, on; dynamic exclusion, 3.0 s. Data-dependent MS/MS parameters for the metabolomics analyses: resolution. 15,000; AGC target, 7.5e4; maximum IT, Dynamic (22 ms); time between Master Scans, 0.6 s; isolation window, 1.0 m/z; NCE/stepped nce, 20, 30, 40, 50; intensity threshold, 5e4; exclude isotopes, on; dynamic exclusion, 5.0 s. To increase the total number of MS/MS spectra in the lipidomics analysis, five runs with iterative MS/MS exclusions were performed using the AcquireX function in Xcalibur (Thermo Fisher Scientific). In the metabolomics analysis, three runs with iterative MS/MS exclusions were performed using the AcquireX function. For the lipidomics analysis, chromatographic separation was achieved using a Waters Acquity UPLC CSH C18 (100 mm×2.1 mm i.d.; 1.7 μm) column injecting 2 μL. […] The column was equilibrated for 2 min at 15% B. The flow rate was set to 250 μL/min. The column temperature was maintained at 65° C. […]

[1] abbreviates: brain tissue of BAY-treated mice.

On to `CCn1c(CO)nn(-c2cc(O[C@@H](C)C(F)(F)F)c(C(=O)Nc3c(F)cccc3Cl)cc2F)c1=O` [BAY2402234], for which the “BAY-2402234 normalized peak intensity (Area)” value was 1338708 and 4796862 and 1717137 and 2579631. Further, under setting [1], the “Glutamine normalized peak intensity (Area)” value was 280983232 and 324326048 and 229454432 and 206007952; the “N-Carbamoyl aspartic acid normalized peak intensity (Area)” value was 1700352 and 1616900 and 1920988 and 2261730; the “Orotic acid normalized peak intensity (Area)” value is 3366687 and 6999989 and 4291824 and 3862066; the “UDP-GluNAc normalized peak intensity (Area)” value is 16715786 and 8363980 and 11501715 and 11534621. In addition, under setting [1], the “UTP normalized peak intensity (Area)” value was 22962 and 19870 and 12207 and 19991; the “Uridine 5′-diphosphate (UDP) normalized peak intensity (Area)” value is 133672 and 97588 and 69682 and 73337; the “Uridine 5′-monophosphate normalized peak intensity (Area)” value is 23218120 and 13372546 and 15616277 and 19018060; the “Uridine normalized peak intensity (Area)” value was 41449420 and 113184456 and 51214976 and 33664876. The “dihydroorotic acid normalized peak intensity (Area)” value under setting [1] was 1975829 and 3553594 and 1415838 and 2677330.

For the origin of these results see US20250152559A1, “METHODS FOR TREATING MYC-AMPLIFIED CANCER” (The Governing Council of the University of Toronto, priority 2023, published 2025).
